Square brackets hold non-standard residues; d marks the D form. Ends that are not written are not given here. pS = N[C@@H](COP(=O)(O)O)C(=O)O
Assays:
Assay type in all cases: in vivo
[1] = test system: mammary gland of lactating dairy cows; experiment: Field study of involution induction: change of pH in milk samples after a single intramammary infusion at dry-off; settings: for Changes of pH in milk samples, Day 1, Mean / Changes of pH in milk samples, Day 2, Mean / Changes of pH in milk samples, Day 3, Mean: difference in pH vs Day 0, single intramammary infusion, peptides 4 mg in 10 ml, casein hydrolyzate 20 ml; for Changes of pH in milk samples, Day 1, Mean: Day 1 post treatment; for Changes of pH in milk samples, Day 2, Mean: Day 2 post treatment; for Changes of pH in milk samples, Day 3, Mean: Day 3 post treatment
Protocol: (§1) A filed study was performed to assess the potential of a single intramammary dose of the synthetic peptides of the invention administered at dry (i.e. at the day in which milking is ceased), to induce rapid involution.
(§2) Total of 107 dairy cows were enrolled to the study, of which 45 received treatment and 62 served as a control. All cows were dairy cows at their first or further lactation that stand the inclusion/exclusion criteria. The study was a controlled blinded case-control study.
(§3) Case subjects received one dose by intramammary infusion of a particular peptide. Controls were lactating cows that received the following products by intramammary administration:
(§4) Five groups of 9 cows (total of 36 udder quarters per group) were scheduled as case groups. Each group was treated with one out of the five (5) phosphopeptides described in Example 1 hereinabove (P241210-01-01; 03; 05; 07 and 09). The peptides were administered once via intramammary infusion of 10 ml containing 4 mg peptide.
(§5) Set one: Five groups of 9 cows (total of 36 udder quarters per group) were scheduled as a first control set. Each group was treated with one out of the five (5) dephosphorylated peptides described in Example 1 hereinabove (P241210-01-02; 04; 06; 08 and 10). The peptides were administered once via intramammary infusion of 10 ml containing 4 mg peptide.
(§6) (i) Eleven cows (total of 44 udder quarters) treated with casein hydrolyzate (20 ml) administered once via intramammary infusion of 20 ml (around 1.8 mg/ml casein phosphopeptide (CPP), total=36 mg CPP for 20 ml)
(§7) All treatments (peptides, casein hydrolyzate and saline) were administered at the time point scheduled for cessation of milking (dry off). The day of administration was set as Day 0.
(§8) Sets of aseptic milk samples were collected in two separate vials once a day in the milking facility after the morning milking, on Day 0 and in post-treatment days 1, 2 and 3. The sampling time points were set to up to three days after treatment administration to ensure sufficient milk secretion for the measurements of all involution parameters. The volume of the samples was between 30 to 50 ml. The pH of the milk sample was measured in situ using a Cyberscan pH11 meter (Eutech Instruments, Singapore). The apparatus was calibrated each day by immersing the receptor in standard buffers of pH 7.0 and pH 4.01. Measurements were taken twice for each sample obtained from a mammary gland, with an interval of 30 seconds between measurements. pH measurement was repeated on-site by using the same sample vial. Before double-pH measurement, the milk sample vials were gently shaken three (3) times. After the pH measurement, the milk samples vials were kept in cool storage with a preservative product (Broad Spectrum Microtabs II—Bronopol and Metamycin—D&F Control System Inc., Two Technology Way, Norwood Mass. 02062 USA).
(§9) Endpoint Measures: pH, lactose and somatic cell counts (SCC) values from milk secretions at day 0 and during three (3) days post-treatment were taken. Results are described as the difference between the measures at each of the 3 days post treatment and the measured level at Day 0.
Table 2 below summarizes the effect of the peptides examined and of casein hydrolyzate (CNH) on the pH of milk samples taken 1, 2 and 3 days after the one-dose treatment with each peptide or CNH. The results are presented as the difference in pH value between each of the days post treatment and Day 0 (before treatment).

[2] = test system: mammary gland of lactating dairy cows; experiment: Field study of involution induction: change in lactose content of milk samples after a single intramammary infusion at dry-off; settings: for Changes in Lactose content in milk samples, Day 1, Mean / Changes in Lactose content in milk samples, Day 2, Mean / Changes in Lactose content in milk samples, Day 3, Mean: difference in lactose concentration vs Day 0, single intramammary infusion, peptides 4 mg in 10 ml, casein hydrolyzate 20 ml; for Changes in Lactose content in milk samples, Day 1, Mean: Day 1 post treatment; for Changes in Lactose content in milk samples, Day 2, Mean: Day 2 post treatment; for Changes in Lactose content in milk samples, Day 3, Mean: Day 3 post treatment
Protocol: as §1, §2, §3, §4, §5, §6, §7, §8
Lactose values in the milk samples were determined at the Central Laboratory of Milk Quality, Caesaria Industrial Park, Israel, according to ISO 2266211DF 198:2007.
Data from six quarters were excluded from the analysis of lactose changes. Data from one of those quarters were omitted due to a missing initial value. For the other five quarters, lactose concentrations taken during the three follow-up days could not be analyzed due to a rapid mammary involution process, resulting in non-sufficient milk sample for lactose analysis.
as §9
One of the most significant outcomes of involution in terms of milk composition is a reduction in lactose content. Thus, lactose concentration was also measured in the milk samples taken before and after peptide or CNH administration as described for the pH measurements hereinabove. […]

[3] = test system: mammary gland of lactating dairy cows; experiment: Field study of involution induction: change in somatic cell counts in milk samples after a single intramammary infusion at dry-off; settings: for Changes in Somatic Cell Counts in milk samples, Day 1, Mean / Changes in Somatic Cell Counts in milk samples, Day 2, Mean / Changes in Somatic Cell Counts in milk samples, Day 3, Mean: change vs Day 0, calculated from log transformation of raw data, single intramammary infusion, peptides 4 mg in 10 ml, casein hydrolyzate 20 ml; for Changes in Somatic Cell Counts in milk samples, Day 1, Mean: Day 1 post treatment; for Changes in Somatic Cell Counts in milk samples, Day 2, Mean: Day 2 post treatment; for Changes in Somatic Cell Counts in milk samples, Day 3, Mean: Day 3 post treatment
Protocol: as §1, §2, §3, §4, §5, §6, §7, §8
Somatic cell count was also determined in milk samples by Fossomatic 360 (Foss Electric, Hillerod, Denmark), and based on guidelines from the USA National Mastitis Council. Laboratory Handbook on Bovine Mastitis. 1999. Ed. National Mastitis Council, Verona, Wis. 53593 USA.
as §9
Additional parameter that may be used to establish the progression of the involution process is the presence of somatic cells within the milk. The increase in cell count within the milk is the result of high degree of apoptotic epithelial cell death associated with involution. […] The results presented in the table were calculated from log transformation of the raw data that were highly variable.

ESLSSSEE-NH2 [D]
Changes of pH in milk samples, Day 1, Mean [1]: 0.000 | Changes of pH in milk samples, Day 2, Mean [1]: −0.027 | Changes of pH in milk samples, Day 3, Mean [1]: 0.013 | Changes in Lactose content in milk samples, Day 1, Mean [2]: −0.749 | Changes in Lactose content in milk samples, Day 2, Mean [2]: −1.387 | Changes in Lactose content in milk samples, Day 3, Mean [2]: −0.090 | Changes in Somatic Cell Counts in milk samples, Day 1, Mean [3]: 0.387 | Changes in Somatic Cell Counts in milk samples, Day 2, Mean [3]: 1.023 | Changes in Somatic Cell Counts in milk samples, Day 3, Mean [3]: −0.249

Glu-Ser(P)-Leu-Ser(P)-Ser(P)-Ser(P)-Glu-Glu-NH2 (E[pS]L[pS][pS][pS]EE-NH2; N-terminus assumed; SMILES CC(C)C[C@H](NC(=O)[C@H](COP(=O)(O)O)NC(=O)[C@@H](N)CCC(=O)O)C(=O)N[C@@H](COP(=O)(O)O)C(=O)N[C@@H](COP(=O)(O)O)C(=O)N[C@@H](COP(=O)(O)O)C(=O)N[C@@H](CCC(=O)O)C(=O)N[C@@H](CCC(=O)O)C(N)=O) [D(p), casein-derived peptide, positive control]
Changes of pH in milk samples, Day 1, Mean [1]: 0.027 | Changes of pH in milk samples, Day 2, Mean [1]: −0.018 | Changes of pH in milk samples, Day 3, Mean [1]: 0.077 | Changes in Lactose content in milk samples, Day 1, Mean [2]: −0.431 | Changes in Lactose content in milk samples, Day 2, Mean [2]: −1.460 | Changes in Lactose content in milk samples, Day 3, Mean [2]: −2.180 | Changes in Somatic Cell Counts in milk samples, Day 1, Mean [3]: 0.383 | Changes in Somatic Cell Counts in milk samples, Day 2, Mean [3]: 1.181 | Changes in Somatic Cell Counts in milk samples, Day 3, Mean [3]: 1.998

KKSLSS-NH2 [A]
Changes of pH in milk samples, Day 1, Mean [1]: 0.048 | Changes of pH in milk samples, Day 2, Mean [1]: −0.002 | Changes of pH in milk samples, Day 3, Mean [1]: 0.072 | Changes in Lactose content in milk samples, Day 1, Mean [2]: −0.463 | Changes in Lactose content in milk samples, Day 2, Mean [2]: −1.268 | Changes in Lactose content in milk samples, Day 3, Mean [2]: −1.773 | Changes in Somatic Cell Counts in milk samples, Day 1, Mean [3]: 0.911 | Changes in Somatic Cell Counts in milk samples, Day 2, Mean [3]: 1.571 | Changes in Somatic Cell Counts in milk samples, Day 3, Mean [3]: 2.090

KSSSEE-NH2
Changes of pH in milk samples, Day 1, Mean [1]: 0.047 | Changes of pH in milk samples, Day 2, Mean [1]: −0.028 | Changes of pH in milk samples, Day 3, Mean [1]: 0.115 | Changes in Lactose content in milk samples, Day 1, Mean [2]: −0.368 | Changes in Lactose content in milk samples, Day 2, Mean [2]: −1.531 | Changes in Lactose content in milk samples, Day 3, Mean [2]: −1.675 | Changes in Somatic Cell Counts in milk samples, Day 1, Mean [3]: −0.186 | Changes in Somatic Cell Counts in milk samples, Day 2, Mean [3]: 0.843 | Changes in Somatic Cell Counts in milk samples, Day 3, Mean [3]: 1.492

Lys-Lys-Ser(P)-Leu-Ser(P)-Ser(P)-Ser(P)-NH2 (KK[pS]L[pS][pS][pS]-NH2; N-terminus assumed; SMILES CC(C)C[C@H](NC(=O)[C@H](COP(=O)(O)O)NC(=O)[C@H](CCCCN)NC(=O)[C@@H](N)CCCCN)C(=O)N[C@@H](COP(=O)(O)O)C(=O)N[C@@H](COP(=O)(O)O)C(=O)N[C@@H](COP(=O)(O)O)C(N)=O) [A(p)]
Changes of pH in milk samples, Day 1, Mean [1]: 0.016 | Changes of pH in milk samples, Day 2, Mean [1]: 0.020 | Changes of pH in milk samples, Day 3, Mean [1]: 0.118 | Changes in Lactose content in milk samples, Day 1, Mean [2]: −0.462 | Changes in Lactose content in milk samples, Day 2, Mean [2]: −1.364 | Changes in Lactose content in milk samples, Day 3, Mean [2]: −1.771 | Changes in Somatic Cell Counts in milk samples, Day 1, Mean [3]: 0.592 | Changes in Somatic Cell Counts in milk samples, Day 2, Mean [3]: 1.212 | Changes in Somatic Cell Counts in milk samples, Day 3, Mean [3]: 1.829

Lys-Lys-Ser(P)-Ser(P)-NH2 (KK[pS][pS]-NH2; N-terminus assumed; SMILES NCCCC[C@H](NC(=O)[C@@H](N)CCCCN)C(=O)N[C@@H](COP(=O)(O)O)C(=O)N[C@@H](COP(=O)(O)O)C(N)=O) [C(p)]
Changes of pH in milk samples, Day 1, Mean [1]: 0.066 | Changes of pH in milk samples, Day 2, Mean [1]: 0.046 | Changes of pH in milk samples, Day 3, Mean [1]: 0.119 | Changes in Lactose content in milk samples, Day 1, Mean [2]: −0.509 | Changes in Lactose content in milk samples, Day 2, Mean [2]: −1.427 | Changes in Lactose content in milk samples, Day 3, Mean [2]: −0.345 | Changes in Somatic Cell Counts in milk samples, Day 1, Mean [3]: −0.129 | Changes in Somatic Cell Counts in milk samples, Day 2, Mean [3]: 0.961 | Changes in Somatic Cell Counts in milk samples, Day 3, Mean [3]: 0.195

Lys-Lys-Ser(P)-Ser(P)-Ser(P)-NH2 (KK[pS][pS][pS]-NH2; N-terminus assumed; SMILES NCCCC[C@H](NC(=O)[C@@H](N)CCCCN)C(=O)N[C@@H](COP(=O)(O)O)C(=O)N[C@@H](COP(=O)(O)O)C(=O)N[C@@H](COP(=O)(O)O)C(N)=O) [B(p)]
effect on the milk pH, in words ([1]; compared with the other peptides and casein hydrolyzate, particularly first 2 days after treatment): showed the most significant effect on the milk pH | Changes of pH in milk samples, Day 1, Mean [1]: 0.171 | Changes of pH in milk samples, Day 2, Mean [1]: 0.165 | Changes of pH in milk samples, Day 3, Mean [1]: 0.163 | effect on the reduction of lactose content, in words ([2]; all time points examined, compared with CNH): higher effect on the reduction of lactose content compared to the effect of CNH | Changes in Lactose content in milk samples, Day 1, Mean [2]: −1.250 | Changes in Lactose content in milk samples, Day 2, Mean [2]: −2.013 | Changes in Lactose content in milk samples, Day 3, Mean [2]: −2.521 | Changes in Somatic Cell Counts in milk samples, Day 1, Mean [3]: 3.129 | Changes in Somatic Cell Counts in milk samples, Day 2, Mean [3]: 3.099 | Changes in Somatic Cell Counts in milk samples, Day 3, Mean [3]: 3.451 | induction of involution, overall conclusion in words ([3]; conclusion from pH, lactose and somatic cell count results): highly effective in inducing involution

Source: patent publication US9487557B2, “Peptides for management of lactation” (MILEUTIS LTD., priority 2012, dated 2016)
